The subject of the experiment is K^+ currents (voltage dependent potassium channels) in DRG neurons. It is filed as cell-based, Wistar rats.

Regarding FHGGSWYRFPWGY-NH2 [Mo1659], the “Effect on fast transient K^+ current component” value was “not significantly affected”.

These data come from patent US8138153B2, “Potassium channel modulator peptide” (National Centre for Biological Sciences, priority 2004, dated 2012).
